Test results as given in ChEMBL document CHEMBL5338766, “X-ray Crystal Structure-Guided Discovery of Novel Indole Analogues as Colchicine-Binding Site Tubulin Inhibitors with Immune-Potentiating and Antitumor Effects against Melanoma” (J Med Chem, 2023).

Columns and labels:
HepG2 [1] = test: Antiproliferative activity against human HepG2 cells assessed as inhibition of cell proliferation incubated for 48 hrs by MTT assay; assay type: functional, cell-based; conditions: HepG2, 48 h
[2] = Antiproliferative activity against paclitaxel resistant human A549/TxR cells assessed as inhibition of cell proliferation incubated for 48 hrs by MTT assay; assay type: functional, cell-based
Tubulin (Homo sapiens) = Tubulin (Homo sapiens) (UniProt P68371+Q9H4B7+P0DPH7+P68366+Q13509+Q71U36+P04350+Q3ZCM7+P07437+P68363+Q9BQE3+Q6PEY2+Q13885+Q9BVA1+Q9BUF5); test: Disruption of microtubule network in human HepG2 cells cytosol incubated for 12 hrs by DAPI staining based fluorescence microscopic analysis; assay type: subcellular; conditions: dose 0.5-5 nM
HepG2 [3] = test: Induction of apoptosis in human HepG2 cells assessed as viable cells at 1 nM incubated for 48 hrs by Annexin V-FITC/PI staining based flow cytometric analysis (reference value: 87.6%); assay type: functional; conditions: read-out: Activity
HepG2 [4] = test: Induction of apoptosis in human HepG2 cells assessed as necrotic cells at 5 nM incubated for 48 hrs by Annexin V-FITC/PI staining based flow cytometric analysis (reference value: 0.443%); assay type: functional
[5] = MRT(0 to t) in Sprague-Dawley rat at 2 mg/kg, iv measured upto 12 hrs by UPLC-MS/ESI analysis; assay type: ADME, organism-based; conditions: in vivo
[6] = Half-life in Sprague-Dawley rat at 2 mg/kg, iv measured upto 12 hrs by UPLC-MS/ESI analysis; assay type: ADME, organism-based; conditions: in vivo
[7] = Half-life in Sprague-Dawley rat at 20 mg/kg, po measured upto 12 hrs by UPLC-MS/ESI analysis; assay type: ADME, organism-based; conditions: in vivo
[8] = Acute toxicity in C57 mouse assessed as survival rate at 80 mg/kg, po administered daily for 14 days relative to control; assay type: organism-based; conditions: in vivo, time 14 day, read-out: Activity
[9] = Acute toxicity in C57 mouse assessed as survival rate at 100 mg/kg, po administered daily for 14 days relative to control; assay type: organism-based; conditions: in vivo, time 14 day, read-out: Activity
[10] = Toxicity in C57 mouse implanted with mouse B16-F10 cells assessed as pathological changes in heart at 5 mg/kg, ip administered every day for 14 days by H&E staining based microscopic analysis; assay type: organism-based; conditions: in vivo, 336 h, time 14 day

In the case of `COc1cc(-c2nccc3[nH]c(-c4cccc5c4ccn5C)nc23)cc(OC)c1OC`, the IC50 (HepG2 [1]) is reported as 1 nM, the IC50 [2] is reported as 15.3 nM and the Activity (Tubulin (Homo sapiens)) is reported as “Dose-Dependent Effect”. The viability at 0.001 µM (HepG2 [3]) was 59.6%, the Activity (HepG2 [4]) was 0.201% and the MRT last at 12 h [5] was 1.79 h. The half-life [6] was 1.08 h, the half-life [7] was 1.83 h and the survival at 336 h [8] was 20%. The survival at 336 h [9] was 0% and the Activity [10] was “Non-Toxic”.
